Like-named read-outs stand apart in the source and are kept apart here.
Tests used:
BGT1 wt = target: T1, BGT1 wt (Homo sapiens, UniProt P48065); assay: [3H]GABA uptake assay, transient expression in tsA201 cells; assay type: cell-based; conditions: for IC50: BGT1 wt, tsA201 cells; for Selectivity ratio for BGT1 over GAT3: [3H]GABA uptake IC50 GAT3 wt / BGT1 wt
T1 construct: expressed in transfected cells; host or cells: tsA201 (transformed HEK293), transient
T1 sequence (P48065 1-614): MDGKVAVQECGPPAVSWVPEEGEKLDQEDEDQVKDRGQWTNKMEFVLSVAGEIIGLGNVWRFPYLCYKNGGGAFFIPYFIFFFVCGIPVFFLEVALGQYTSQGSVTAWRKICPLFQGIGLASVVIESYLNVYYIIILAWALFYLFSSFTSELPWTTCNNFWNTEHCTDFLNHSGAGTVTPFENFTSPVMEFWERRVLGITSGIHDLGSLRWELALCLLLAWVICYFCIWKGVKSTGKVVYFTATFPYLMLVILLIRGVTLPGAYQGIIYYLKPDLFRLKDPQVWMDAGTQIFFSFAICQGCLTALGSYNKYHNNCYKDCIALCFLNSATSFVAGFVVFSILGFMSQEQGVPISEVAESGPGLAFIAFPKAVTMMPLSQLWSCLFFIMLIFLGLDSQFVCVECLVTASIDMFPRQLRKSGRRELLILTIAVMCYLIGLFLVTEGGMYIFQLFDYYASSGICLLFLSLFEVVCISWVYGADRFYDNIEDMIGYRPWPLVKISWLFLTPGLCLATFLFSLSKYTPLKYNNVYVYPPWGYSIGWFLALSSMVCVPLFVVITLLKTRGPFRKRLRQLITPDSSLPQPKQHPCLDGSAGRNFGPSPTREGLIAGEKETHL
Description: (§1) FIGURE 6 (A) Pocket alignment of the orthosteric site of the four GAT subtypes colored according to the default ClustalX color scheme ([Larkin et al., 2007]). The pocket was defined as all corresponding GAT residues (15 in total) that are within a distance of 4.5 Å of the co-crystallized ligand leucine in the homologous LeuT crystal structure (PDB ID 2A65) ([Yamashita et al., 2005]) according to the alignment by Kickinger et al. ([Kickinger et al., 2019]). The mutated residues in BGT1 and the corresponding residues in GAT1-3 are indicated by a red box. The numbering of all residues within the orthosteric pocket can be found in the Supplementary Table S1.
(§2) The tsA201 cell line (a transformed HEK293 cell line), the Flp-In CHO cell lines stably expressing human (h) GATs and the HEK293 cell line stably expressing human α1β2γ2 GABAA receptors have been described previously and were cultured accordingly ([Al-Khawaja et al., 2014]; [Falk-Petersen et al., 2020]). The tsA201 cell line used for transient expression of hGATs was transfected with DNA constructs (8 μg per 10 cm plate) using 40 μL PolyFect transfection reagent according to the manufacturer’s protocol (Qiagen).
(§3) Briefly, cells were seeded in white 96-well plates (White Opaque Tissue Culture (TC) plated 96-well Microplate) pre-coated with PDL. Medium was removed on the following day and cells washed with 100 µL/well assay buffer (HBSS supplemented with 20 mM HEPES, 1 mM CaCl2 and 1 mM MgCl2, pH 7.4). […] The cells were washed 3 times with 100 µL/well ice-cold assay buffer, 150 µL/well MicroScint™20 was subsequently added before the plate was shaken for at least 1 h. The plate was counted in a Packard TopCounter microplate scintillation counter (PerkinElmer) for 3 min per well. […] Data presented is the pooled data of at least three independent experiments with three technical replicates if not stated otherwise in figure legends. Concentration–response curves were fitted by non-linear regression to the sigmoidal concentration-response model with GraphPad Prism (version 9.0.0, GraphPad Software, San Diego, CA, United States) as described ([Lie et al., 2020]).

GAT3 wt = target: T2, GAT3 wt (Homo sapiens, UniProt P48066); assay: as above; assay type: cell-based
T2 construct: expressed in transfected cells; host or cells: tsA201 (transformed HEK293), transient
T2 sequence (P48066 1-632): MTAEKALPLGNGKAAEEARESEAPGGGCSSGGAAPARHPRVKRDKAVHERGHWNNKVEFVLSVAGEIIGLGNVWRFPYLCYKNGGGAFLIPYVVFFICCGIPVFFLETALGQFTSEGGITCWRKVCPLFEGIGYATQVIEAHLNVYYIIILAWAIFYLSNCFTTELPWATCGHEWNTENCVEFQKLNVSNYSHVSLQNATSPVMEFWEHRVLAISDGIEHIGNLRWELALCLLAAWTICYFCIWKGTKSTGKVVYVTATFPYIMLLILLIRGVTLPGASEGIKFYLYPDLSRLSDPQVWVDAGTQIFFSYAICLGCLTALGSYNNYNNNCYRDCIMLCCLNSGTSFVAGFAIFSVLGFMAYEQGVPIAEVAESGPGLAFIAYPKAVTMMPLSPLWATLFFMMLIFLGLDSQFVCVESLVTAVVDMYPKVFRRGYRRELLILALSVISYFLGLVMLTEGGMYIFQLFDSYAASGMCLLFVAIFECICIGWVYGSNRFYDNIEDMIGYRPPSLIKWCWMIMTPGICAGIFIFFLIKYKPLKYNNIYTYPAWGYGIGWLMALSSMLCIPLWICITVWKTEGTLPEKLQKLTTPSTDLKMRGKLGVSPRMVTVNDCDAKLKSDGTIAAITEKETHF
Description: as §1, §2, §3

IC50 (BGT1 wt; 30 nM [3H]GABA, read-out: IC50) [µM]	IC50 (BGT1 wt; read-out: pIC50 ± S.E.M. (converted)) [µM]	Selectivity ratio for BGT1 over GAT3 (BGT1 wt)	IC50 (GAT3 wt) [µM]	Compound
1.5	1.26	407	610	N[C@@]12CC[C@H](C(=O)O)[C@@H]1C2 [bicyclo-GABA, (1S,2S,5R)-5-aminobicyclo[3.1.0]hexane-2-carboxylic acid]
9.8	–	22	211	CN[C@@]12CC[C@H](C(=O)O)[C@@H]1C2 [compound 2]

— publication PMC8476755 (Frontiers in Chemistry, 2021)
